Assay results taken from patent publication US20080255366A1, “Crystalline Trihydrate of Zoledronic Acid” (DR. REDDY'S LABORATORIES LIMITED, priority 2005, published 2008).

Assay: solubility of crystalline zoledronic acid trihydrate compared with the monohydrate
Format: physicochemical
Conditions: relative to zoledronic acid monohydrate; solvent and temperature not stated

Compound: O=P(O)(O)C(O)(Cn1ccnc1)P(=O)(O)O [zoledronic acid trihydrate, (1-Hydroxy-2-imidazol-1-yl-phosphonoethyl) phosphonic acid]
- solubility: substantially equal to that of the monohydrate
